Assay results: a melting point compilation (Tetko et al.; mined from patent text by program, amines drawn as free bases though some values may be those of a salt)
Residues, ends and D or L forms follow the SMILES beside them. *: point of attachment. Boc = CC(C)(C)OC(=O)*

melting point [°C] | Structure (SMILES)
122 to 123 | Cc1cc(Cc2nnc(Nc3cc(Br)cc(C(F)(F)F)c3)c3ccccc23)ccn1
184 to 185 | CC(C)n1nc(OCC(=O)c2ccc(F)cc2)c(-c2ccc(F)cc2)c1-c1ccc(S(C)(=O)=O)cc1
220 to 221 | CCn1c(=O)n(-c2ccc(-n3ccn4c5ccccc5nc34)cc2)c2ncccc21
179 | CS(=O)(=O)c1cc(C(=O)O)c(NCc2ccccc2)cc1Cl
160 to 161 | CCOC(=O)C1=CCCCC1S(=O)(=O)Nn1cccc1-c1ccccc1 (configuration not stated)
160 | COc1ccc2c(c1)N(C(C)=O)C1=C(S2)C(S(C)(=O)=O)=CCC1=O
200 to 201 | Cc1c(Cc2cccc(C(F)(F)F)c2)oc2c(-c3cccc(C(=O)O)c3)cccc12
77 to 79 | COc1ccc(C(=C(c2ccc(OC)cc2)C(F)(F)F)c2ccc(OCCN(C)C)cc2)cc1
126 to 127 | COc1ccc(Br)c(COc2ccc3ccc(OC)cc3c2Cl)c1
141 to 142 | Cc1cc(-n2nc(C(F)F)cc2-c2ccc(S(C)(=O)=O)cc2)ccc1Br
158 to 159 | COc1nc2ccccc2cc1NC(=O)N1CCN(c2cc(F)cc(F)c2)CC1
68 to 69 | Cc1ccc(S(=O)(=O)OC[C@@H](O)CCc2ccccc2)cc1
187 to 188 | CC(Sc1nc(N)cc(Cl)n1)c1cc2ccoc2cn1 (configuration not stated)
154 to 155 | CN1C(=O)C(c2ccccc2)(c2ccncc2)N=C1N (configuration not stated)
125 to 133 | CCc1nc2cc(NC(C)=O)c(Cl)cc2n1-c1ccc(CCNC(=O)NS(=O)(=O)c2ccc(C)cc2)cc1
236 to 238 | O=C(O)c1cccc(S(=O)(=O)Cc2c(O[C@H](Cn3ccnc3)c3ccccc3)ccc3c2CCCC3=O)c1
163 to 164 | CCOc1ccc(NC(=O)NCCc2ccccn2)cc1
> 250 | O=C(c1cc2ccccc2s1)N1CCc2[nH]c3c(cnc4cc(Cl)ccc43)c2C1
160 to 162 | Cc1cc(-c2nc3ccccc3c(=O)n2-c2ccc(C(C)C)cc2)cc(C)c1OCCO
88 to 89 | CC(=O)CC(=O)N1CC(c2ccccc2)c2ccccc21 (configuration not stated)
121 to 123 | COc1ccc2[nH]c(SCc3nccc(N4CCOCC4)c3F)nc2c1
225 to 227 | COc1cc2c(cc1Br)CC(SC)=NN=C2c1ccc([N+](=O)[O-])cc1
263 to 265 | O=C(O)CNC(=O)c1ccc(C(=O)NS(=O)(=O)c2ccc(C(=O)NCCc3ccccc3)cc2)cn1

melting point [°C] | Structure (SMILES)
226 to 228 | CC(C)(C)c1ccc([C@@H]2C[C@H]3C=C(c4c[nH]c(-c5ccc(F)cc5)c4-c4ccncc4)CCN3C2)cc1
202 to 205 | O=C1Nc2ccccc2SC[C@@H]1N1C(=O)c2ccccc2C1=O
115 to 117 | Cc1cccc(NS(=O)(=O)c2cc(S(=O)(=O)Nc3cccc(C)c3)c3cc(O)ccc3c2)c1
55 to 57 | Cc1oc(-c2ccccc2)nc1CC=Cc1ccc(CC2SC(=O)NC2=O)cc1 (configuration not stated)
149 to 150 | CCN1C(=O)C(C)(C)C(=O)N(C)c2cc(CN(CCn3c(=O)ccc4ccccc43)Cc3cccnc3C)ccc21
218 to 220 | O=c1c2ccccc2nc(-c2cc(-c3ccccc3)c(N3CCOCC3)s2)n1-c1ccccc1
137 | Cc1nc(Nc2cccc(C(F)(F)F)c2)c2ccccc2c1Cc1ccc(Cl)nc1
50 to 52 | CCCOc1cc(C)c(C(=O)O)c(OCc2ccc(OCCc3nc(-c4ccccc4)oc3C)cc2)c1
190 to 193 | CNC(=NC#N)NCCCn1cc(C2=C(c3cn(C)c4ccccc34)C(=O)NC2=O)c2ccccc21
195 to 201 | c1ccc(CN2CCN(Cc3nc4ccccc4[nH]3)CC2)cc1
191 to 193 | CC(=O)c1c(-c2ccc(Cl)cc2)c(-c2ccc(Cl)cc2)nn(CCO)c1=O
103 | O=S(=O)(c1ccccc1)c1ncc(Cl)cn1
112 to 113 | COc1cccc(-c2nc(-c3ccccc3)c3ncc(-c4csc5ccccc45)cc3n2)c1
152 to 153 | CCCN1C(=O)C(NC(=O)C(N)Cc2ccccc2)N=C(N2CCN(C)CC2)c2ccccc21 (configuration not stated)
125 to 127 | Cc1cccc(C)c1NC(=O)Nc1ccc(CC(=O)NC(CC(C)C)c2ncc(CCC(=O)O)s2)cc1 (configuration not stated)
108 to 110 | CC(=O)c1cccc(N2CCN(CCCCOc3ccc4ccc(=O)[nH]c4n3)CC2)c1Cl
225 | CCCC(=O)Nc1nn(COCC[Si](C)(C)C)c2cc(-c3ccc(SC)cc3)ccc12
235 to 236 | COC(=O)Nc1cc(OC)c(-c2ccc(C[C@H](NC(=O)c3c(Cl)cccc3Cl)C(=O)O)cc2)c(OC)c1
161 to 163 | Cn1nc(-c2c(Cl)cccc2Cl)nc1-c1cccs1
276 to 278 | O=Cc1cc2n(n1)-c1ccc(Cl)cc1C(c1ccccc1)NC2=O (configuration not stated)
247 to 249 | O=c1nc(-c2ccccc2)c2ccsc2[nH]1
168 to 172 | Fc1ccccc1-c1ccnc2ncnn12

The remaining lines, values behind:

Structure (SMILES) | melting point [°C]
CC(=O)NCC1CC(c2cc(F)c(-n3ccnc3)c(F)c2)=NO1 (single isomer, unassigned; (-)) | 168 to 169
COc1cc(Nc2nc(N3CCOCC3)nc(-n3c(C(F)F)nc4c(OC)cccc43)n2)ncn1 | 256 to 259
C#CCOc1cc(-n2nc(C(C)(C)C)oc2=O)c(F)cc1Cl | 72 to 73
O=C=Nc1c(F)cc(Cl)c2nc(Cl)sc12 | 95 to 98
Cc1ncsc1C(O)c1cccc(O)c1 (configuration not stated) | 181 to 184
CC(C)SN(C)C(=O)Nc1ccc(Cl)c(Cl)c1 | 65
O=c1[nH]ncc2[nH]c(-c3ccc(OC(F)F)c(OC4CC4)c3)c(C3CC3)c12 | 248 to 249
C[C@@H]1S[C@@H](C(=O)Nc2ccc(CN3CCSC3)cc2)Cc2cc3c(cc2C1=O)OCO3 | 179 to 181
CCOC(=O)C1=C(C)NC(C)=C(C(=O)OCCN)C1c1cccc([N+](=O)[O-])c1 (configuration not stated) | 137 to 139
COc1cc2c(cc1OC)[C@@H]1CN(C)CC[C@@H]1N=C2c1ccc(Cl)c(Cl)c1 (relative stereo) | 183 to 184
O=C1NCCN1c1ccc(F)cc1N1CCN(C/C=C/c2ccc(Cl)cc2)CC1 | 170 to 172
CCCCCCCCCCCCc1ccccc1C(SCCC(=O)O)C(=O)O (configuration not stated) | 44 to 46
CCOC(=O)C1(CCCN)CCCCC1(O)c1ccccc1 (configuration not stated) | 130 to 133
CCCCc1nc2c(c(C)c(C)n3nnnc23)n1CC(C)(C)NC(=O)c1ccccc1 | 201 to 204
CCN(CC)C(=O)c1nc2n(n1)-c1ccc(Cl)cc1C(c1ccccc1)=NC2 | 175 to 177
CC(/C=C/CN1CCc2cc3c(cc21)C(C)(C)CCC3(C)C)=C\C(=O)O | 170 to 171
NC(=O)c1cnn2c1NCC=C2c1cccc(C(F)(F)F)c1 | 157 to 160
CCCn1nc(SCCCCCC(=O)O)c(C(=O)O)c1Cc1cc2c(cc1Cl)OCO2 | 88
CC(C#N)=C1CCC2C3CCC4=CC(=O)CCC4(C)C3CCC12C (configuration not stated) | 195 to 196
O=C(O)c1cccc2[nH]nnc12 | 250 to 252
COc1c2c(c(OC)c(OC)c1OC)CC(CCCCOc1ccc(C(=O)N3CCOCC3)cc1)C2 | 64 to 72
O=c1c2ccsc2ccn2ccnc12 | 267
c1ccc2sc(SSN3CCCCCC3)nc2c1 | 65 to 67
COc1ccnc(Cl)c1N | 86 to 87
CNS(=O)(=O)OCC(=O)N(c1c(C)ccc2ccccc12)C1CCOC1=O (configuration not stated) | 190 to 194
CC1=C(/C=C/C(C)=C/C=C/C(C)=C\C(=O)O)C(C)(C)C(=O)CC1 | 178 to 179

Structure (SMILES) | melting point [°C]
CSC[C@H]1NC(=O)[C@@H](Cc2ccccc2)NC1=O | 246 to 247
CC1CC(=O)Nc2ncc3c(c21)CCCN3 (configuration not stated) | 309 to 311
CCC(=O)c1ccc(O)c(CNC(=O)CCl)c1 | 143 to 145
CCOC(=O)C(C)=NNc1ccc(F)c(Cl)c1 | 89 to 91
CC(C)c1ncc(CN2C(=O)C3(COc4cc5c(cc43)OCO5)c3ccccc32)o1 (configuration not stated) | 75 to 77
Cc1oncc1C(=O)N1CCOCC1 | 42 to 44
COc1ccc(C(=O)c2ccco2)cc1OC | 112 to 114
COC(=O)[C@H](Cc1ccc([N+](=O)[O-])cc1)NC(=S)c1c(C)cccc1Cl | 150 to 153
CCCc1[nH]c(=O)[nH]c(=O)c1N1CCN(Cc2ccccc2)CC1 | 233 to 235
CC(C)Sc1cc([Si](C)(C)C)oc1C(=O)O | 181 to 183
OCc1cccc(-c2coc(-c3cn([C@H]4CN5CCC4CC5)nn3)c2)c1 | 212
Cn1nnnc1C(/C=C/[C@@H]1C[C@@H](O)CC(=O)O1)=C(c1ccc(F)cc1)c1ccc(F)cc1 | 104 to 106
N#Cc1cnn2c1N(C(=O)CN1CCN(C(=O)Nc3cccc(Cl)c3)CC1)CC=C2c1cccc(C(F)(F)F)c1 | 182 to 185
CN1CCC(=C2c3ccc(F)cc3CCn3ccnc32)CC1 | 152
Cc1ccc(-n2ccc(C=O)c2)cc1 | 71 to 72
COCCOc1ccc(COC(C)=O)c(Oc2ncc(C(F)(F)F)cc2Cl)c1 | 52.5 to 53
CN1CCC(=C2c3ccsc3C(=O)Cn3ccnc32)CC1 | 153
CN1CCN(c2ncccc2OC2CCN(c3ccc(Br)cc3)C2=O)CC1 (configuration not stated) | 72 to 82
CC(C)(C)c1ccc2c(O)ccnc2c1 | 207 to 209
CNc1cc(N2CCN(C(=O)C3CCN(S(=O)(=O)c4ccc(C(F)(F)F)cc4)CC3)CC2)ncn1 | 237 to 238
Cc1nn(C)c(C)c1NC1=NCCO1 | 131 to 132
CC(C)(C)[Si](C)(C)N1C(=O)CC1CC(=O)CC(=O)OCc1ccc([N+](=O)[O-])cc1 (configuration not stated) | 65 to 66.5
Cc1ncnn1-c1ccc(N)cc1 | 145
IC#CCOCc1cccnc1 | 109 to 110
CC(C(=O)O)c1ccc(C(=O)c2cccs2)c(Cl)c1 (configuration not stated) | 82.5
CC(NC(=O)C(Cc1ccc(O)cc1)NC(=O)OC(C)(C)C)C(=O)NCC(=O)O (stereo not drawn) (Boc-Tyr-Ala-Gly-OH; configuration not given here) | 194 to 197
